Measured values: patent US6596885B2, “19-Nor steroids having a thiocarbonated chain in position 11beta, their preparation process and the intermediates of this process, their use as medicaments and compositions” (Aventis Pharma S.A., priority 1991, dated 2003)
Read-outs that look alike come from different tables or passages of the source.

Legend:
[1] = test system: MCF-7 mammary tumour cells; experiment: Anti-proliferative activity on the growth of MCF-7 mammary tumour cells (DNA dosage); type: cell-based; conditions: MCF-7 cells in DSE medium with 10^-10 M estradiol, D7 to D9, DNA by DABA fluorimetry, read-out: IC 50: concentration which inhibits the growth of MCF7 cells by 50%
Procedure: 2—Anti-proliferative Activity of the Products of the Invention on the Growth of MCF-7 Mammary Tumour Cells
MCF-7 lines are kept in culture in FCS medium (according to 1) at 37° C. in a humid atmosphere containing 5% CO2. Subconfluent cells are collected by trypsination (0.05% trypsin, 0.02% EDTA) then rinsed by gentle centrifugation. A sample of cells in suspension is counted with a Malassez cell.
The cells, resuspended in DSE medium (according to 1), are seeded at the rate of 50,000 cells per well in multiwell plates (24 wells of 2.5 cm^2). Twenty-four hours after seeding (D0), the product to be tested is added to the medium in ethanolic solution (final concentration of ethanol: 0.1%), at a concentration of 10^−11 to 10^−6M, the control wells receiving the same ethanol concentration. The media are renewed every 48 hours. At the end of the experiment (D7 to D9), the medium is extracted and the cells are immediately fixed with 150 microlitres of methanol in order to dose the DNA.
The anti-proliferative activity of the products is evaluated by their capacity to inhibit the increase of DNA
The DNA is dosed by a fluorimetric method using DABA (3,5 diaminobenzoic acid) (according to 2): 150 microlitres of DABA are added to each well; the plates are then incubated for 45 mn at 56° C., then 2 ml of 1N HCl is added. The fluorescence is measured using a fluorimeter (excitation wavelength: 408 nm, emission wavelength: 510 nm).
The quantity of DNA per well is evaluated relative to a reference scale obtained by treating a calf thymus DNA standard under the same conditions.
The concentration in nM which inhibits the growth of MCF7 cells by 50% (IC50) was determined in the manner indicated above:
(1) A Base Medium is Prepared as Follows
The FCS medium is composed of 95% of base medium and 5% of foetal calf serum.
The DSE medium is composed of 95% of base medium, 5% of steroid-free foetal calf serum on carbon-dextran and 10^−10 M of estradiol.
(2) Puzas and Goodman, Analytical Biochemistry, Vol 86, p. 50, 1978

[2] = target: T1, Estrogen receptor of a mouse uterus (Mus musculus, UniProt P19785); experiment: Activity on the estrogen receptor of a mouse uterus (relative bond affinity, displacement of tritiated estradiol); type: binding; conditions: mouse uterus cytosol, RBA = 100 (CH)/(CX) relative to unlabelled estradiol
T1 construct: The homogenate is then ultracentrifuged (209,000 g×30 mn.) at 0° C; from tissue; host or cells: uterus of 18 to 21-day old immature female mice, cytosol (ultracentrifugation supernatant of the homogenate)
T1 sequence (P19785 1-599): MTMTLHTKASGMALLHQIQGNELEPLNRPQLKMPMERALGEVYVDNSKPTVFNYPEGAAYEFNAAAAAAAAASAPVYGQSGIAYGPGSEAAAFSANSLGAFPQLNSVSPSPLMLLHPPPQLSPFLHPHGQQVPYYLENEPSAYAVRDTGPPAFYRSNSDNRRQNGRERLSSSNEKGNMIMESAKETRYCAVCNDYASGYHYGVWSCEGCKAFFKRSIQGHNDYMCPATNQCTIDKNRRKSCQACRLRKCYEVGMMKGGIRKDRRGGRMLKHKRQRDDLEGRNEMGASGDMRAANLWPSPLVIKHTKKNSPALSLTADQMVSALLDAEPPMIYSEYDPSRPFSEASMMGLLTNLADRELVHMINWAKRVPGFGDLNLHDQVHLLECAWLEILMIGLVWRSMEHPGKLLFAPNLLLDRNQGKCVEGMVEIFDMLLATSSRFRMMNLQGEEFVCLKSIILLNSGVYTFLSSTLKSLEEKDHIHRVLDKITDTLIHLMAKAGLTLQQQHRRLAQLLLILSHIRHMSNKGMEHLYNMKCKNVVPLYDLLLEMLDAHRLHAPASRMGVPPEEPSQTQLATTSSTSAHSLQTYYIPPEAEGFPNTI
Procedure: 1—Study of the Activity of the Products of the Invention on the Estrogen Receptor of a Mouse Uterus
18 to 21-day old impuberal female mice are sacrificed, the uteri are removed, then homogenized at 0° C., using a Potter teflon-glass in a TS buffered solution (10 mM Tris, 0.25 M saccharose, HCl pH 7.4) (1 g of tissue per 25 ml of TS). The homogenate is then ultracentrifuged (209,000 g×30 mn.) at 0° C. The supernatant aliquots thus obtained are incubated at 25° C. for 5 hours, with a constant concentration (T) of tritiated estradiol in the presence of increasing concentrations either of unlabelled estradiol (0-1000×10^−9M), or of unlabelled product to be tested (1 to 25000×10^−9M). The concentration of bound tritiated estradiol (B) is then measured in each incubate by the carbon-dextran adsorption technique.
Calculation of the Relative Bond Affinity (RBA)
The following two curves are drawn: the percentage of bound tritiated hormone B/BO as a function of the logarithm of the concentration of unlabelled reference hormone or as a function of the logarothm of the concentration of unlabelled test product.
The straight line of the following equation:
BO=% of binding of the bound tritiated hormone in the absence of any unlabelled product.
B=% of the bound tritiated hormone in the presence of a concentration X of unlabelled product.
B min=% of bound tritiated hormone in the presence of a large excess of unlabelled reference hormone (500 nM).
The intersections of the straight line I50 and the curves allow the evaluation of the concentrations of unlabelled reference hormone (CH) and of the unlabelled test product (CX) which inhibit by 50% the specific binding of the tritiated hormone on the receptor.
The relative bond affinity (RBA) of the test product is calculated by the equation: […]

IC50 [1] [nM] | Compound | IC50 ([1]; Homo sapiens, MCF7) [nM] | Relative bond affinity (RBA), Estrogen receptor incubation 5H at 25° C. [2]
– | C[C@]12C[C@H](CCCCCCCCSCc3ccccn3)[C@@H]3c4ccc(O)cc4CC[C@H]3[C@@H]1CC[C@@H]2O [Example 1, 11beta-[8-[(2-pyridinylmethyl)thio]octyl]estra-1,3,5(10)-triene-3,17beta-diol] | 0.024 | –
– | C[C@]12C[C@H](c3ccc(OCCCCC[S+]([O-])Cc4ccccn4)cc3)[C@@H]3c4ccc(O)cc4CC[C@H]3[C@@H]1CC[C@@H]2O (stereo partly drawn) [Example 5, 11beta-[4-[5-[(2-pyridinylmethyl)sulphinyl]-pentyloxy]phenyl]estra-1,3,5(10)-triene-3,17beta-diol] | 0.012 | 21.2
– | C[C@]12C[C@H](c3ccc(OCCCCC[S+]([O-])Cc4cccnc4)cc3)[C@@H]3c4ccc(O)cc4CC[C@H]3[C@@H]1CC[C@@H]2O (stereo partly drawn) [Example 7, 11beta-[4-[5-[(3-pyridinylmethyl)sulphinyl]pentyloxy]phenyl]estra-1,3,5(10)-triene-3,17beta-diol] | 0.026 | 26.3
– | C[C@]12C[C@H](c3ccc(OCCCCCS(=O)(=O)CCCC(F)(F)C(F)(F)F)cc3)[C@@H]3c4ccc(O)cc4CC[C@H]3[C@@H]1CC[C@@H]2O [Example 32, 11beta-[4-[5-[(4,4,5,5,5-pentafluoropentyl)sulphonyl]pentyloxy]phenyl]estra-1,3,5(10)-triene-3,17beta-diol] | 0.1 | 56
– | CCCCCS(=O)(=O)C(C)CCCOc1ccc([C@H]2C[C@]3(C)[C@@H](O)CC[C@H]3[C@@H]3CCc4cc(O)ccc4[C@H]32)cc1 (stereo partly drawn) [Example 60, 11beta-[4-[4-(pentylsulphonyl)pentyloxy]phenyl]estra-1,3,5(10)-triene-3,17beta-diol] | 0.25 | 18.2
0.03 | C[C@]1(O)CC[C@H]2[C@@H]3CCc4cc(O)ccc4[C@H]3[C@@H](c3ccc(OCCCCCS(=O)(=O)CCCC(F)(F)C(F)(F)F)cc3)C[C@@]21C [Example 78, 11beta-[4-[5-[(4,4,5,5,5-pentafluoropentyl)sulphonyl]pentyloxy]phenyl]17alpha-methyl estra-1,3,5(10)-triene-3,17beta-diol] | – | 21.8
